The record followed here is patent US7435837B2, “Dihydrobenzofuranyl alkanamine derivatives and methods for using same” (Wyeth, priority 2003, dated 2008).

Read-outs that look alike come from different tables or passages of the source.

Assay [1] addresses T1, human 5-hydroxytryptamine-2C (h5-HT2C) receptor (Homo sapiens, UniProt P28335).
T1 construct: expressed in transfected cells; host or cells: CHO (Chinese Hamster Ovary) cells; membranes
T1 sequence (P28335 33-458): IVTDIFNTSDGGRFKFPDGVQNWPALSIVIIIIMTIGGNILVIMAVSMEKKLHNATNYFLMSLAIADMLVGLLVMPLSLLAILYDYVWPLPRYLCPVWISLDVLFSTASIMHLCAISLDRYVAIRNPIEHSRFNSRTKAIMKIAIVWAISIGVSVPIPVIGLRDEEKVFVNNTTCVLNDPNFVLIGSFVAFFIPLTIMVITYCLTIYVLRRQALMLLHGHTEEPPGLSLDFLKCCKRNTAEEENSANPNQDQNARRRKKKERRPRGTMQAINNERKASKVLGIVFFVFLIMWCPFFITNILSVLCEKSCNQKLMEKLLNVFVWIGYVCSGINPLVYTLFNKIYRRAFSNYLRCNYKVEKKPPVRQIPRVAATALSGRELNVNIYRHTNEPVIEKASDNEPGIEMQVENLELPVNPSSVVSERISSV
As to the kind of experiment: [125I]DOI binding to membranes of CHO cells expressing the human 5-HT2C receptor. The settings on record: [125I]DOI radioligand, CHO cell membranes, room temperature 60 min; read-out: 5-HT2C Affinity Ki.

The target in the next assay is T2, human 5-HT2C receptor (Homo sapiens, UniProt P28335).
T2 sequence (P28335 33-458): T1 sequence (P28335 33-458)
Briefly: 5-HT2C receptor-stimulated calcium mobilization (FLIPR) in CHO cells.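 On all read-outs here: Fluo-3-AM fluorescence read on FLIPR every 1 s, agonist added after 10 baseline reads, response taken as peak minus lowest raw fluorescence count.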 It counts as cell-based. As to conditions: for Emax: CHO; for EC50: calcium mobilization, CHO cells stably expressing human 5-HT2C, read-out: 5-HT2C Function EC50.

The mark [2] stands for this setting: percentage of the response observed with a maximally effective concentration of 5-HT, read-out: 5-HT2C Function Emax (%).
Where [3] appears, read: percentage of the response observed with a maximally effective concentration of 5-HT.

Broadly, the Ki is the equilibrium dissociation constant of an inhibitor or competing ligand from its target. What is called EC50 is the midpoint of the concentration-response curve. Take `Cc1ccccc1-c1cccc2c1OC(CN)C2` (single isomer, unassigned; (+)) [Example 48, (+)-1-[7-(2-methylphenyl)-2,3-dihydro-1-benzofuran-2-yl]methanamine]: the Ki in assay [1] came out at 0.3 nM. The Emax at human 5-HT2C receptor (setting [2]) stood at 100%. Also, the EC50 at human 5-HT2C receptor is 2.4 nM.
In the same order, the values of `NCC1Cc2cc(F)cc(-c3ccoc3)c2O1` (racemic) [Example 204, (±)-{[5-fluoro-7-(3-furyl)-2,3-dihydro-1-benzofuran-2-yl]methyl}amine] are 1.3 nM, 90% and 336 nM.
In the case of `CNCC1Cc2cc(C)cc(-c3cc(Cl)ccc3Cl)c2O1` (racemic) [Example 486, (±)-{[7-(2,5-dichlorophenyl)-5-methyl-2,3-dihydro-1-benzofuran-2-yl]methyl}methylamine], the Ki in assay [1] was 0.2 nM. In addition, at human 5-HT2C receptor (setting [2]), the Emax was 90%. In addition, on human 5-HT2C receptor, the EC50 is 5 nM.
Consider `COc1cccc(-c2cc(Cl)cc3c2OC(CN)C3)c1OC` (racemic) [Example 249, (±)-{[5-chloro-7-(2,3-dimethoxyphenyl)-2,3-dihydro 1-benzofuran-2-yl]methyl}amine], for which the inhibitory constant (Ki) in assay [1] came to 4 nM. In addition, the Emax on human 5-HT2C receptor (setting [2]) came out at 90%. Moreover, the half-maximal effective concentration (EC50) at human 5-HT2C receptor came to 21 nM.
Consider `NCC1Cc2cc(C(F)(F)F)cc(-c3ccsc3)c2O1` (racemic) [Example 342, (±)-{[7-thien-3-yl-5-(trifluoromethyl)-2,3-dihydro-1-benzofuran-2-yl]methyl}amine], for which, in assay [1], the Ki amounted to 28 nM. Also, the Emax on human 5-HT2C receptor (setting [2]) was determined as 80%. Further, the EC50 on human 5-HT2C receptor turned out to be 590 nM.
For the compound `CNCC1Cc2cccc(-c3ccccc3C)c2O1` (single isomer, unassigned; (-)) [Example 407, (−)-N-methyl-1-[7-(2-methylphenyl)-2,3-dihydro-1-benzofuran-2-yl]methanamine], the inhibition constant (Ki) in assay [1] was determined as 8.5 nM. Further, the EC50 on human 5-HT2C receptor turned out to be 149 nM. Also, at human 5-HT2C receptor (setting [3]), the “5-HT2C Function Emax (%)” value is given as 60%.
Take `CNCC1Cc2cc(C)cc(-c3ccccc3F)c2O1` (racemic) [Example 475, (±)-{[7-(2-fluorophenyl)-5-methyl-2,3-dihydro-1-benzofuran-2-yl]methyl}methylamine]: the Ki in assay [1] worked out at 3.2 nM. Further, on human 5-HT2C receptor (setting [2]), the Emax worked out at 80%. Also, the EC50 on human 5-HT2C receptor came out at 25 nM.
`CNCC1Cc2cccc(-c3ccccc3Cl)c2O1` (single isomer, unassigned; (-)) [Example 411, (−)-N-methyl-1-[7-(2-chlorophenyl)-2,3-dihydro-1-benzofuran-2-yl]methanamine]: in assay [1], the Ki is 2.6 nM. Further, at human 5-HT2C receptor, the concentration for a half-maximal effect (EC50) was 57 nM. For the same compound, the “5-HT2C Function Emax (%)” value at human 5-HT2C receptor (setting [3]) is on record as 80%.
Take `CC(C)(C)c1cc(Cl)cc2c1OC(CN)C2` (single isomer, unassigned; (-)) [Example 28, (−)-1-(7-tert-butyl-5-chloro-2,3-dihydro-1-benzofuran-2-yl)methanamine]: the inhibitory constant (Ki) in assay [1] turned out to be 16 nM. Also, on human 5-HT2C receptor (setting [2]), the Emax was 90%. Besides, the concentration giving a half-maximal response (EC50) on human 5-HT2C receptor came to 77 nM.
In the same order, the values of `CNCC1Cc2cc(F)cc(-c3ccccc3C)c2O1` (racemic) [Example 440, (±)-{[5-fluoro-7-(2-methylphenyl)-2,3-dihydro-1-benzofuran-2-yl]methyl}methylamine] are 1.2 nM, 100% and 9 nM.
In the same order, the values of `Cc1ccccc1-c1cc(C(F)(F)F)cc2c1OC(CN)C2` (racemic) [Example 314, (±)-{[5-(trifluoromethyl)-7-(2-methylphenyl)-2,3-dihydro-1-benzofuran-2-yl]methyl}amine] are 18 nM, 90% and 42 nM.
`CNCC1Cc2cc(F)cc(-c3ccc(Cl)cc3Cl)c2O1` (racemic) [Example 445, (±)-[7-(2,4-dichlorophenyl)-5-fluoro-2,3-dihydro-1-benzofuran-2-yl]methyl}methylamine]: the Ki in assay [1] is 0.48 nM. In addition, the Emax on human 5-HT2C receptor (read-out: 5-HT2C Function Emax (%), percentage of the response observed with a maximally effective concentration of 5-HT) came out at 90%. Also, the EC50 on human 5-HT2C receptor was 1 nM.
On to `COc1ccc(-c2cccc3c2OC(CN)C3)c(OC)c1` (racemic) [Example 143, (±)-1-[7-(2,4-dimethoxyphenyl)-2,3-dihydro-1-benzofuran-2-yl]methanamine], for which the Ki in assay [1] was determined as 6.3 nM. The Emax at human 5-HT2C receptor (setting [2]) stood at 90%. Moreover, the EC50 on human 5-HT2C receptor is 1 nM.
Consider `CNCC1Cc2cccc(-c3ccc(C)cc3)c2O1` (racemic) [Example 418, (±)-[(N-methyl-1-[7-(4-methylphenyl)-2,3-dihydro-1-benzofuran-2-yl]methanamine], for which the Ki in assay [1] turned out to be 1.1 nM. Besides, on human 5-HT2C receptor (setting [2]), the Emax worked out at 80%. For the same compound, the concentration giving a half-maximal response (EC50) at human 5-HT2C receptor was 59 nM.
Regarding `CNCC1Cc2cc(F)cc(-c3cc(OC)ccc3C)c2O1` (racemic) [Example 456, (±)-{[5-fluoro-7-(5-methoxy-2-methylphenyl)-2,3-dihydro-1-benzofuran-2-yl]methyl}methylamine], the inhibition constant Ki in assay [1] is 4.1 nM. Besides, the Emax at human 5-HT2C receptor (setting [2]) came to 100%. For the same compound, on human 5-HT2C receptor, the EC50 was 50 nM.
For the compound `COc1ccc(Cl)cc1-c1cccc2c1OC(CN)C2` (racemic) [Example 169, (±)-{[7-(5-chloro-2-methoxyphenyl)-2,3-dihydro-1-benzofuran-2-yl]methyl}amine], the inhibition constant Ki in assay [1] turned out to be 14 nM. Moreover, the Emax on human 5-HT2C receptor (setting [2]) worked out at 100%. At human 5-HT2C receptor, the EC50 came to 50 nM.
In the same order, the values of `Cc1cc2c(c(-c3c(C)cccc3C)c1)OC(CN)C2` (racemic) [Example 301, (±)-{[7-(2,6-dimethylphenyl)-5-methyl-2,3-dihydro-1-benzofuran-2-yl]methyl}amine] are 2 nM, 90% and 31 nM.
In the same order, the values of `NCC1Cc2cccc(-c3cccnc3)c2O1` (single isomer, unassigned; (+)) [Example 171, (+)-{[7-pyridin-3-yl-2,3-dihydro-1-benzofuran-2-yl]methyl}amine] are 0.88 nM, 100% and 0.7 nM.
As for `CNCC1Cc2cc(C)cc(-c3cccc(C)c3)c2O1` (racemic) [Example 478, (±)-{[7-(3-methylphenyl)-5-methyl-2,3-dihydro-1-benzofuran-2-yl]methyl}methylamine], the inhibitory constant (Ki) in assay [1] came to 11 nM. Also, at human 5-HT2C receptor (setting [2]), the Emax turned out to be 70%. Moreover, the EC50 at human 5-HT2C receptor was determined as 225 nM.
With `NCC1Cc2cccc(-c3ccc(F)cc3)c2O1` (single isomer, unassigned; (+)) [Example 74, (+)-1-[7-(4-fluorophenyl)-2,3-dihydro-1-benzofuran-2-yl]methanamine], in assay [1], the Ki is 3 nM. On human 5-HT2C receptor (setting [2]), the Emax turned out to be 100%. For the same compound, at human 5-HT2C receptor, the EC50 was 11 nM.
As for `CCc1cc2c(c(-c3ccccc3Cl)c1)OC(CN)C2` (racemic) [Example 306, (±)-{[5-ethyl-7-(2-chlorophenyl)-2,3-dihydro-1-benzofuran-2-yl]methyl}amine], the Ki in assay [1] came out at 0.58 nM. On human 5-HT2C receptor (setting [2]), the Emax worked out at 100%. For the same compound, the 50% effective concentration (EC50) at human 5-HT2C receptor came to 0.64 nM.
As for `Cc1cccc(-c2cccc3c2OC(CN)C3)c1` (single isomer, unassigned; (+)) [Example 42, (+)-1-[7-(3-methylphenyl)-2,3-dihydro-1-benzofuran-2-yl]methanamine], in assay [1], the Ki stood at 17 nM. The Emax on human 5-HT2C receptor (setting [2]) worked out at 100%. The EC50 at human 5-HT2C receptor was 162 nM.
Taken in the same sequence, the figures for `CC(C)(C)c1cccc2c1OC(CN)C2` (single isomer, unassigned; (-)) [Example 25, (−)-1-(7-tert-butyl-2,3-dihydro-1-benzofuran-2-yl)methanamine] were 18 nM, 90% and 10 nM.
As to `NCC1Cc2cc(F)cc(-c3ccccc3Cl)c2O1` (single isomer, unassigned; (-)) [Example 102, (−)-1-[7-(2-chlorophenyl)-5-fluoro-2,3-dihydro-1-benzofuran-2-yl]methanamine], in assay [1], the Ki worked out at 8 nM. Further, the concentration giving a half-maximal response (EC50) at human 5-HT2C receptor was determined as 32 nM. The “5-HT2C Function Emax (%)” value at human 5-HT2C receptor (setting [3]) came to 65%.
Regarding `CNC[C@H]1Cc2cc(F)cc(-c3ccccc3Cl)c2O1` [Example 545, (R)-[7-(2-chloro-phenyl)-5-fluoro-2,3-dihydro-benzofuran-2-ylmethyl]-methyl-amine], in assay [1], the Ki was determined as 0.14 nM. The Emax at human 5-HT2C receptor (setting [2]) was found to be 100%. Besides, on human 5-HT2C receptor, the EC50 stood at 0.1 nM.
With `CC(C)c1cccc2c1OC(CN)C2` (single isomer, unassigned; (-)) [Example 19, (−)-(7-isopropyl-2,3-dihydro-1-benzofuran-2-yl)methylamine], the inhibitory constant (Ki) in assay [1] stood at 2 nM. For the same compound, at human 5-HT2C receptor, the half-maximal effective concentration (EC50) is 66 nM. Also, on human 5-HT2C receptor (setting [3]), the “5-HT2C Function Emax (%)” value is 100%.
In the case of `COc1ccccc1-c1cccc2c1OC(CN)C2` (racemic) [Example 59, (±)-1-[7-(2-methoxyphenyl)-2,3-dihydro-1-benzofuran-2-yl]methanamine], the inhibition constant (Ki) in assay [1] was 2 nM. The Emax on human 5-HT2C receptor (setting [2]) stood at 100%. The concentration for a half-maximal effect (EC50) on human 5-HT2C receptor came out at 127 nM.
For the compound `CNCC1Cc2cc(C)cc(-c3c(Cl)cccc3Cl)c2O1` (racemic) [Example 490, (±)-{[7-(2,6-dichlorophenyl)-5-methyl-2,3-dihydro-1-benzofuran-2-yl]methyl}methylamine], in assay [1], the Ki turned out to be 1 nM. For the same compound, the Emax on human 5-HT2C receptor (setting [2]) is 100%. Besides, the EC50 on human 5-HT2C receptor turned out to be 6 nM.
